Measurements published in PubChem BioAssay AID248 (DTP/NCI, 2004).
Toxic doses and inconclusive results are not listed. Rule as the data show it: active = T/C of 150% or more; inactive = T/C below 125%.

System: L1210 leukemia ip in BDF1 mice, survival T/C
Assay: NCI In Vivo Anticancer Drug Screen. Data for tumor model L1210 Leukemia (intraperitoneal) in B6D2F1 (BDF1) mice
Conditions: endpoint: mean survival time, higher = longer survival
Summary of the method: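 Survival endpoint. Drug-treated group vs vehicle group, expressed as T divided by C. Tumor passaged by transplantation.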

[1] = dose: 100.0 mg/kg/injection, schedule: Q01DX001 (ip), vehicle: saline
[2] = dose: 200.0 mg/kg/injection, schedule: Q01DX001 (ip), vehicle: saline
[3] = dose: 300.0 mg/kg/injection, schedule: Q01DX001 (ip), vehicle: saline
[4] = dose: 400.0 mg/kg/injection, schedule: Q01DX001 (ip), vehicle: saline
[5] = dose: 100.0 mg/kg/injection, schedule: Q01DX009 (ip), vehicle: Klucel (hydroxypropylcellulose) (HPC)
[6] = dose: 200.0 mg/kg/injection, schedule: Q01DX009 (ip), vehicle: Klucel (hydroxypropylcellulose) (HPC)
[7] = dose: 400.0 mg/kg/injection, schedule: Q01DX009 (ip), vehicle: Klucel (hydroxypropylcellulose) (HPC)
[8] = dose: 12.5 mg/kg/injection, schedule: Q04DX002 (ip), vehicle: saline with Tween-80
[9] = dose: 25.0 mg/kg/injection, schedule: Q04DX002 (ip), vehicle: saline with Tween-80
[10] = dose: 100.0 mg/kg/injection, schedule: Q04DX003 (ip), vehicle: Klucel (hydroxypropylcellulose) (HPC)
[11] = dose: 200.0 mg/kg/injection, schedule: Q04DX003 (ip), vehicle: Klucel (hydroxypropylcellulose) (HPC)
[12] = dose: 400.0 mg/kg/injection, schedule: Q04DX003 (ip), vehicle: Klucel (hydroxypropylcellulose) (HPC)
[13] = dose: 100.0 mg/kg/injection, schedule: Q04DX002 (ip), vehicle: saline with Tween-80
[14] = dose: 200.0 mg/kg/injection, schedule: Q04DX002 (ip), vehicle: saline with Tween-80
[15] = dose: 400.0 mg/kg/injection, schedule: Q04DX002 (ip), vehicle: saline with Tween-80

Measured: T/C

ClCc1c2ccccc2c(CCl)c2ccccc12
inactive: dose: 0.9 mg/kg/injection, schedule: Q01DX009 (ip), vehicle: saline with Tween-80 118 % of control | dose: 1.35 mg/kg/injection, schedule: Q01DX009 (ip), vehicle: saline with Tween-80 120 % of control | dose: 2.05 mg/kg/injection, schedule: Q01DX009 (ip), vehicle: saline with Tween-80 111 % of control | dose: 2.08 mg/kg/injection, schedule: Q01DX009 (ip), vehicle: saline 120 % of control | dose: 3.12 mg/kg/injection, schedule: Q01DX009 (ip), vehicle: saline 111 % of control | dose: 4.0 mg/kg/injection, schedule: Q01DX009 (ip), vehicle: carboxymethylcellulose (CMC) 110 % of control | dose: 4.68 mg/kg/injection, schedule: Q01DX009 (ip), vehicle: saline with Tween-80 94 % of control | dose: 4.68 mg/kg/injection, schedule: Q01DX009 (ip), vehicle: saline 98 % of control | dose: 5.0 mg/kg/injection, schedule: Q01DX009 (ip), vehicle: carboxymethylcellulose (CMC) 121 % of control | dose: 6.2 mg/kg/injection, schedule: Q01DX015 (ip), vehicle: carboxymethylcellulose (CMC) 112 % of control | dose: 7.0 mg/kg/injection, schedule: Q01DX001 (ip), vehicle: saline 114 % of control | dose: 9.3 mg/kg/injection, schedule: Q01DX015 (ip), vehicle: carboxymethylcellulose (CMC) 106 % of control | dose: 14.0 mg/kg/injection, schedule: Q01DX001 (ip), vehicle: saline 104 % of control | dose: 14.0 mg/kg/injection, schedule: Q01DX015 (ip), vehicle: carboxymethylcellulose (CMC) 104 % of control | dose: 16.0 mg/kg/injection, schedule: Q01DX009 (ip), vehicle: carboxymethylcellulose (CMC) 119 % of control | dose: 20.0 mg/kg/injection, schedule: Q01DX009 (ip), vehicle: carboxymethylcellulose (CMC) 123 % of control | dose: 28.0 mg/kg/injection, schedule: Q01DX001 (ip), vehicle: saline 104 % of control | dose: 56.0 mg/kg/injection, schedule: Q01DX001 (ip), vehicle: saline 109 % of control | dose: 88.8 mg/kg/injection, schedule: Q01DX001 (ip), vehicle: saline 113 % of control | [1] 118 % of control | dose: 112.0 mg/kg/injection, schedule: Q01DX001 (ip), vehicle: saline 109 % of control | [2] 109 % of control | [3] 109 % of control | [4] 92 % of control

COC(=O)c1ccccc1NC(=O)Cc1ccccc1
inactive: [5] 91 % of control | [6] 98 % of control | [7] 98 % of control

CN(C)CCc1ccc2cc3ccc(CCN(C)C)cc3nc2c1
inactive: dose: 6.25 mg/kg/injection, schedule: Q04DX002 (ip), vehicle: saline with Tween-80 102 % of control | [8] 105 % of control | [9] 105 % of control

CN(C)c1ccc2c(c1)C(Br)c1ccccc1-2 (centres undefined)
inactive: [5] 106 % of control | [10] 94 % of control | [6] 107 % of control | [11] 96 % of control | [12] 97 % of control

CCOC(=O)c1nc2c(OC)nn(O)cc-2c1[N+](=O)[O-]
inactive: [8] 92 % of control | [9] 99 % of control

Cc1[nH]c2ccccc2c(=O)c1CCC(=O)O
inactive: [13] 88 % of control | [14] 91 % of control | [15] 91 % of control

ClCSc1ccccc1
inactive: dose: 100.0 mg/kg/injection, schedule: Q04DX003 (ip), vehicle: other 100 % of control | dose: 200.0 mg/kg/injection, schedule: Q04DX003 (ip), vehicle: other 104 % of control | dose: 400.0 mg/kg/injection, schedule: Q04DX003 (ip), vehicle: other 102 % of control

O=C(CCCC(=O)N/N=C/c1cc(Cl)ccc1O)N/N=C\c1cc(Cl)ccc1O
inactive: dose: 50.0 mg/kg/injection, schedule: Q01DX001 (ip), vehicle: saline 98 % of control | [1] 93 % of control | [2] 96 % of control | [4] 98 % of control

OCC1OC(n2cnc3c(SCc4ccccn4)ncnc32)C(O)C1O (centres undefined)
inactive: [1] 101 % of control | [2] 113 % of control | [4] 115 % of control

COCCCNc1ccc(S(=O)(=O)c2ccc(N)cc2)cc1
inactive: dose: 100.0 mg/kg/injection, schedule: Q01DX009 (ip), vehicle: saline with Tween-80 103 % of control | dose: 200.0 mg/kg/injection, schedule: Q01DX009 (ip), vehicle: saline with Tween-80 95 % of control | dose: 400.0 mg/kg/injection, schedule: Q01DX009 (ip), vehicle: saline with Tween-80 97 % of control

CCCCNC(=O)OC
inactive: dose: 50.0 mg/kg/injection, schedule: Q01DX009 (ip), vehicle: Klucel (hydroxypropylcellulose) (HPC) 94 % of control | [5] 97 % of control | [10] 98 % of control | [6] 102 % of control | [11] 91 % of control

CCCC(C)OS(=O)(=O)c1ccc(Br)cc1 (centres undefined)
inactive: dose: 100.0 mg/kg/injection, schedule: Q01DX009 (ip), vehicle: saline 91 % of control | [13] 97 % of control | dose: 200.0 mg/kg/injection, schedule: Q01DX009 (ip), vehicle: saline 96 % of control | [14] 100 % of control | dose: 400.0 mg/kg/injection, schedule: Q01DX009 (ip), vehicle: saline 86 % of control | [15] 97 % of control

Cc1c(-c2nc(SCC(=O)NN)n[nH]2)no[n+]1[O-]
inactive: dose: 25.0 mg/kg/injection, schedule: Q04DX002 (ip), vehicle: Klucel (hydroxypropylcellulose) (HPC) 102 % of control | dose: 50.0 mg/kg/injection, schedule: Q04DX002 (ip), vehicle: Klucel (hydroxypropylcellulose) (HPC) 91 % of control | dose: 100.0 mg/kg/injection, schedule: Q04DX002 (ip), vehicle: Klucel (hydroxypropylcellulose) (HPC) 98 % of control

CC1(C)C2CC3C(C(=O)O)CCCC3(C2)C1Br (centres undefined)
inactive: [5] 103 % of control | [10] 87 % of control | [6] 106 % of control | [11] 90 % of control | [7] 97 % of control | [12] 89 % of control

CC(C)(C)c1cc(/C=C/C(=O)O)cc(C(C)(C)C)c1O
inactive: dose: 100.0 mg/kg/injection, schedule: Q01DX001 (ip), vehicle: Klucel (hydroxypropylcellulose) (HPC) 107 % of control | dose: 200.0 mg/kg/injection, schedule: Q01DX001 (ip), vehicle: Klucel (hydroxypropylcellulose) (HPC) 96 % of control | dose: 400.0 mg/kg/injection, schedule: Q01DX001 (ip), vehicle: Klucel (hydroxypropylcellulose) (HPC) 90 % of control

COC(=O)CCC(=O)c1cccc2ccccc12
inactive: dose: 100.0 mg/kg/injection, schedule: Q04DX003 (ip), vehicle: acetone 91 % of control | dose: 200.0 mg/kg/injection, schedule: Q04DX003 (ip), vehicle: acetone 96 % of control | dose: 400.0 mg/kg/injection, schedule: Q04DX003 (ip), vehicle: acetone 95 % of control

CCc1[nH]c(=S)nc(-c2ccccc2)c1-c1ccc([N+](=O)[O-])cc1O
inactive: [10] 95 % of control | [11] 100 % of control | [12] 95 % of control

c1cnc2ccc3c(c2c1)COCO3
inactive: [1] 93 % of control

C[N+]1(C)C2CCCC1CC(=O)NC2 (centres undefined)
inactive: dose: 75.0 mg/kg/injection, schedule: Q01DX001 (ip), vehicle: saline 107 % of control | dose: 150.0 mg/kg/injection, schedule: Q01DX001 (ip), vehicle: saline 104 % of control | [3] 112 % of control

Cc1ccc(S(=O)(=O)N2CC(=O)N(S(=O)(=O)c3ccc(C)cc3)CC2=O)cc1
inactive: dose: 100.0 mg/kg/injection, schedule: Q01DX001 (ip), vehicle: other 106 % of control | dose: 200.0 mg/kg/injection, schedule: Q01DX001 (ip), vehicle: other 103 % of control | dose: 400.0 mg/kg/injection, schedule: Q01DX001 (ip), vehicle: other 106 % of control
